The source of these data is patent US7390923B2, “Propionamide derivatives useful as androgen receptor modulators” (Orion Corporation, priority 2003, dated 2008).

The experiment has as its target T1, androgen receptor (AR) (Rattus norvegicus, UniProt P15207).
T1 construct: Ventral prostates were obtained form rats castrated 24 h prior to sacrifice; from tissue; host or cells: rat ventral prostate cytosol (castrated rats, charcoal-treated)
T1 sequence (P15207 1-902): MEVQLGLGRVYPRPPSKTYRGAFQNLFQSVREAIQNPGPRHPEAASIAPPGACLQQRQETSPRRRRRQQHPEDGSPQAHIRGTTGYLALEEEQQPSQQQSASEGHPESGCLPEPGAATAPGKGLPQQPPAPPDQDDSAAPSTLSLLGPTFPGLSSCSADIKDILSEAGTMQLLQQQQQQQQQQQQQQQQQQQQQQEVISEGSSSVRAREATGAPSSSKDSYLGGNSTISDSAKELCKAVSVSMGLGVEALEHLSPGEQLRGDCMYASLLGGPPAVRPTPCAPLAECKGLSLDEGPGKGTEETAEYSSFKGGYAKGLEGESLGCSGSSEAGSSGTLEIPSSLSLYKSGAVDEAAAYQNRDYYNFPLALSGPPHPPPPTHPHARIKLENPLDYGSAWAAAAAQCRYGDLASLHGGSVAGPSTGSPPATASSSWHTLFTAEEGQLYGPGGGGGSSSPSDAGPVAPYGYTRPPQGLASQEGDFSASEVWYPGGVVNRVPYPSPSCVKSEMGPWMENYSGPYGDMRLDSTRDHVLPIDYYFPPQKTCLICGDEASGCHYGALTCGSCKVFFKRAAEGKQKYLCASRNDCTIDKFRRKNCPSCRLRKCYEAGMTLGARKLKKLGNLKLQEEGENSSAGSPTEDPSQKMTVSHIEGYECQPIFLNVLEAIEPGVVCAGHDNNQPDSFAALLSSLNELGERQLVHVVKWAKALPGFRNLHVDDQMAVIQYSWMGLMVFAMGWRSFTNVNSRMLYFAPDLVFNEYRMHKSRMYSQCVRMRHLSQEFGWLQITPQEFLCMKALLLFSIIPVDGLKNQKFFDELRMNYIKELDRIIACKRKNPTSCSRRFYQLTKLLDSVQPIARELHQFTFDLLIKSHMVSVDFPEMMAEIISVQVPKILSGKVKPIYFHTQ
Put plainly: AR binding assay, competition with [3H]-mibolerone binding in rat ventral prostate cytosol. The settings on record: 1 nM [3H]-mibolerone, overnight at 0° C. The method, then: Ventral prostates were obtained form rats castrated 24 h prior to sacrifice. Fresh prostate was minced and washed with Buffer A (Schilling and Liao, Prostate, 5:581-588, 1984). The minces were then homogenized in 3× volume of Buffer A containing protease inhibitors (Complete, Mini, EDTA-free Roche). The homogenate was centrifuged at 30000 g for 30 min. The resultant supernatants were treated with 1×volume of dextran-coated charcoal solution (12.5 g activated charcoal, 12.5 g dextran per liter of buffer A) to remove endogenous steroids. The samples were incubated for 5 min and centrifuged at 16000 g for 10 min. Aliquots of the charcoal-treated cytosol were taken for androgen receptor assays. All procedures were carried out at 0-4° C.
Cytosol androgen receptor concentration was determined as described (Isomaa et al., Endocrinology, 111: 833-843, 1982) with minor modifications. Cytosol preparations were prepared as described above, and bound and free steroids were separated by treatment with an equal volume of dextran-charcoal suspension for 5 min at 4° C. followed by centrifugation at 16000 g for 10 min. Bound radioactivity was determined by counting supernatant fractions in 1 ml of OptiPhase HiSafe3 or OptiPhase Supermix (PerkinElmer).
Cytosol preparations were labelled with 1 nM [^3H]-mibolerone overnight at 0° C. (total). To determine AR binding activity of the compounds of the present invention (test compounds), the ability of test compounds to compete with [^3H]7α,17α-dimethyl-17β-hydroxy-4-estren-3-one ([^3H]-mibolerone) binding was studied. 1 nM [^3H]-mibolerone and test compounds in two concentrations (0.2 and 2 uM) were incubated overnight at 0° C. To determine non-specific binding, parallel incubations were carried out using 1 nM concentration [^3H]-mibolerone with 500-fold molar excess of unlabelled testosterone. Two to four replicates were used for each sample. After incubation, bound and free steroids were separated as described above and bound radioactivity was determined. The ability of the test compounds to bind AR is reported as reduction in bound radioactivity obtained with 1 nM [^3H]-mibolerone. The results (% inhibition) were calculated as: % inhibition=100−(100×(averagetest compound/averagetotal)).

Broadly, the inhibition is the relative decrease from the control value, in per cent. Take `Cc1cc(NC(=O)C(C)(O)COc2ccc(F)c(Cl)c2)ccc1[N+](=O)[O-]` (centres unmarked) [Example 8, 3-(3-Chloro-4-fluorophenoxy)-2-hydroxy-2-methyl-N-(3-methyl-4-nitrophenyl)propionamide]: under “test compound 0.2 μM”, the inhibition at 0.2 µM was 93%. Where the note is “test compound 2.0 μM”, the inhibition at 2 µM stood at 109%.

As to `Cc1cc(NC(=O)C(C)(O)COc2ccc(NC(=O)C(F)(F)F)cc2)ccc1[N+](=O)[O-]` (centres unmarked) [Example 13, 2-Hydroxy-2-methyl-N-(3-methyl-4-nitrophenyl)-3-[4-(2,2,2-trifluoroacetylamino)phenoxy]propionamide], the inhibition at 0.2 µM (test compound 0.2 μM) came to 77%. Besides, where the note is “test compound 2.0 μM”, the inhibition at 2 µM was 90%.

In the case of `COCc1ccc(OCC(C)(O)C(=O)Nc2ccc([N+](=O)[O-])c(C)c2)cc1` (centres unmarked) [Example 81, 2-Hydroxy-3-(4-methoxymethylphenoxy)-2-methyl-N-(3-methyl-4-nitrophenyl)propionamide], the inhibition at 0.2 µM (test compound 0.2 μM) was determined as 85%. Moreover, the inhibition at 2 µM (test compound 2.0 μM) stood at 98%.

Take `Cc1cc(NC(=O)C(C)(O)COc2ccc(C#N)c(Cl)c2)ccc1[N+](=O)[O-]` (centres unmarked) [Example 63, 3-(3-Chloro-4-cyanophenoxy)-2-hydroxy-2-methyl-N-(3-methyl-4-nitrophenyl)propionamide]: where the note is “test compound 0.2 μM”, the inhibition at 0.2 µM came out at 92%. The inhibition at 2 µM (test compound 2.0 μM) was 98%.

With `Cc1cc(NC(=O)C(C)(O)COc2ccc(Cl)cc2)ccc1[N+](=O)[O-]` (centres unmarked) [Example 23, 3-(4-Chlorophenoxy)-2-hydroxy-2-methyl-N-(3-methyl-4-nitrophenyl)propionamide], the inhibition at 0.2 µM (test compound 0.2 μM) was determined as 88%. Also, where the note is “test compound 2.0 μM”, the inhibition at 2 µM worked out at 92%.

With `Cc1cc(NC(=O)C(C)(O)COc2ccc(Cl)c(Cl)c2)ccc1[N+](=O)[O-]` (centres unmarked) [Example 6, 3-(3,4-Dichlorophenoxy)-2-hydroxy-2-methyl-N-(3-methyl-4-nitrophenyl)propionamide], the inhibition at 0.2 µM (test compound 0.2 μM) came out at 68%. The inhibition at 2 µM (test compound 2.0 μM) was 95%.

`Cc1cc(NC(=O)C(C)(O)COc2ccc3cc(Br)ccc3c2)ccc1[N+](=O)[O-]` (centres unmarked) [Example 30, 3-(6-Bromonaphtalen-2-yloxy)-2-hydroxy-2-methyl-N-(3-methyl-4-nitrophenyl)-propionamide]: the “Inhibition (%) of [3H]-mibolerone binding at 0.2 μM” value (test compound 0.2 μM) was 80%. Moreover, the “Inhibition (%) of [3H]-mibolerone binding at 2.0 μM” value (test compound 2.0 μM) came to 99%.

As to `Cc1cc(NC(=O)C(C)(O)COc2ccc(OC(F)(F)F)cc2)ccc1[N+](=O)[O-]` (centres unmarked) [Example 9, 2-Hydroxy-2-methyl-N-(3-methyl-4-nitrophenyl)-3-(4-trifluoromethoxyphenoxy)propionamide], for the setting “test compound 0.2 μM”, the inhibition at 0.2 µM is 41%. Moreover, where the note is “test compound 2.0 μM”, the inhibition at 2 µM worked out at 102%.

Consider `Cc1cc(NC(=O)C(C)(O)COc2ccc(Cl)c([N+](=O)[O-])c2)ccc1[N+](=O)[O-]` (centres unmarked) [Example 44, 3-(4-Chloro-3-nitrophenoxy)-2-hydroxy-2-methyl-N-(3-methyl-4-nitrophenyl)propionamide], for which the inhibition at 0.2 µM (test compound 0.2 μM) came to 83%. In addition, for the setting “test compound 2.0 μM”, the inhibition at 2 µM came to 100%.

For `COc1ccc(OCC(C)(O)C(=O)Nc2ccc([N+](=O)[O-])c(C)c2)cc1` (centres unmarked) [Example 25, 2-Hydroxy-3-(4-methoxyphenoxy)-2-methyl-N-(3-methyl-4-nitrophenyl)propionamide], the inhibition at 0.2 µM (test compound 0.2 μM) stood at 96%. Further, the inhibition at 2 µM (test compound 2.0 μM) is 98%.

For the molecule `Cc1cc(NC(=O)C(C)(O)COc2ccc(C#N)cc2)ccc1[N+](=O)[O-]` (centres unmarked) [Example 17, 3-(4-Cyanophenoxy)-2-hydroxy-2-methyl-N-(3-methyl-4-nitrophenyl)propionamide], the inhibition at 0.2 µM (test compound 0.2 μM) stood at 95%. In addition, for the setting “test compound 2.0 μM”, the inhibition at 2 µM turned out to be 98%.

Regarding `CC(O)(COc1ccc(C#N)c(F)c1)C(=O)Nc1ccc([N+](=O)[O-])c(C=O)c1` (centres unmarked) [Example 66, 3-(4-Cyano-3-fluorophenoxy)-N-(3-formyl-4-nitrophenyl)-2-hydroxy-2-methylpropionamide], the inhibition at 0.2 µM (test compound 0.2 μM) came out at 69%. The inhibition at 2 µM (test compound 2.0 μM) is 93%.

For `Cc1cc(NC(=O)C(C)(O)COc2cccc(F)c2)ccc1[N+](=O)[O-]` (centres unmarked) [Example 18, 3-(3-Fluorophenoxy)-2-hydroxy-2-methyl-N-(3-methyl-4-nitrophenyl)propionamide], the inhibition at 0.2 µM (test compound 0.2 μM) was 90%. Moreover, the inhibition at 2 µM (test compound 2.0 μM) was found to be 99%.

Consider `Cc1cc(NC(=O)C(C)(O)COc2ccc(C#N)c(F)c2)ccc1[N+](=O)[O-]` (centres unmarked) [Example 42, 3-(4-Cyano-3-fluorophenoxy)-2-hydroxy-2-methyl-N-(3-methyl-4-nitrophenyl)propionamide], for which the inhibition at 0.2 µM (test compound 0.2 μM) is 83%. In addition, under “test compound 2.0 μM”, the inhibition at 2 µM worked out at 97%.

On to `CCOC(=O)Nc1ccc(OCC(C)(O)C(=O)Nc2ccc([N+](=O)[O-])c(C)c2)cc1F` (centres unmarked) [Example 50, {2-Fluoro-4-[2-hydroxy-2-(3-methyl-4-nitrophenylcarbamoyl)propoxy]-phenyl}carbamic acid ethyl ester], for which the inhibition at 0.2 µM (test compound 0.2 μM) stood at 96%. Besides, the inhibition at 2 µM (test compound 2.0 μM) is 99%.

Take `Cc1cc(NC(=O)C(C)(O)COc2ccc(CCO)cc2)ccc1[N+](=O)[O-]` (centres unmarked) [Example 20, 2-Hydroxy-3-[4-(2-hydroxyethyl)phenoxy]-2-methyl-N-(3-methyl-4-nitrophenyl)propionamide]: the inhibition at 0.2 µM (test compound 0.2 μM) turned out to be 13%. Moreover, the inhibition at 2 µM (test compound 2.0 μM) is 83%.

Consider `CC(=O)Nc1ccc(OCC(C)(O)C(=O)Nc2ccc([N+](=O)[O-])c(C)c2)cc1C(F)(F)F` (centres unmarked) [Example 31, 3-(4-Acetylamino-3-trifluoromethylphenoxy)-2-hydroxy-2-methyl-N-(3-methyl-4-nitrophenyl)propionamide], for which the inhibition at 0.2 µM (test compound 0.2 μM) amounted to 18%. Where the note is “test compound 2.0 μM”, the inhibition at 2 µM came to 75%.

Regarding `Cc1cc(NC(=O)C(C)(O)CNc2ccc(F)cc2)ccc1[N+](=O)[O-]` (centres unmarked) [Example 52, 3-(4-Fluorophenylamino)-2-hydroxy-2-methyl-N-(3-methyl-4-nitrophenyl)propionamide], the inhibition at 0.2 µM (test compound 0.2 μM) turned out to be 90%. Also, the inhibition at 2 µM (test compound 2.0 μM) was found to be 115%.

Turning to `Cc1cc(NC(=O)C(C)(O)COc2ccc(CCCCl)cc2)ccc1[N+](=O)[O-]` (centres unmarked) [Example 79, 3-[4-(3-Chloropropyl)phenoxy]-2-hydroxy-2-methyl-N-(3-methyl-4-nitrophenyl)propionamide], under “test compound 0.2 μM”, the inhibition at 0.2 µM turned out to be 89%. Under “test compound 2.0 μM”, the inhibition at 2 µM was 98%.

With `Cc1ccc(OCC(C)(O)C(=O)Nc2ccc([N+](=O)[O-])c(C)c2)cc1` (centres unmarked) [Example 12, 2-Hydroxy-2-methyl-N-(3-methyl-4-nitrophenyl)-3-p-tolyloxypropionamide], where the note is “test compound 0.2 μM”, the inhibition at 0.2 µM is 77%. In addition, the inhibition at 2 µM (test compound 2.0 μM) was determined as 101%.

For the molecule `CC(=O)c1ccc(OCC(C)(O)C(=O)Nc2ccc([N+](=O)[O-])c(C)c2)cc1` (centres unmarked) [Example 16, 3-(4-Acetylphenoxy)-2-hydroxy-2-methyl-N-(3-methyl-4-nitrophenyl)propionamide], the inhibition at 0.2 µM (test compound 0.2 μM) is 50%. For the same molecule, the inhibition at 2 µM (test compound 2.0 μM) was 91%.

Consider `CC(=O)Nc1ccc(OCC(C)(O)C(=O)Nc2ccc([N+](=O)[O-])c(C)c2)cc1` (centres unmarked) [Example 1, 3-(4-Acetylaminophenoxy)-2-hydroxy-2-methyl-N-(3-methyl-4-nitrophenyl)propionamide], for which the inhibition at 0.2 µM (test compound 0.2 μM) turned out to be 91%. The inhibition at 2 µM (test compound 2.0 μM) was 101%.
